# Legend:
# [1] = LCMS bioanalysis of compound levels in rat samples (plasma, CSF, brain) after administration; type: in vivo; details: lower limit of quantification 1 ng/ml
# Source text: Measurement of Compound 1 or Compound 2 from rat samples (plasma, cerebral spinal fluid “CSF” or brain homogenate) was done by high resolution using a sensitive LCMS method.
# Extracts of biological samples (either organic solvent precipitated or organic solvent extracted i. plasma or ii. CSF or iii. homogenates of whole brains from Compound 1 or Compound 2 treated rats) were subjected to LCMS and were compared to freshly prepared standard curves on exactly the same LCMS instrument. The standard curves were prepared of Compound 1 or Compound 2 at known concentrations dispensed (spiked) into rat plasma (supplied by Bioivt formerly Bioreclamation, Cat. No. RAT00PLK2Y2N, Bioivt, Hicksville N.Y. USA) as Sprague Dawley male rat plasma prepared by collection of blood into potassium-EDTA “K2-EDTA” tubes, centrifuged and stored at −80 C until usage). […] The lower limit of quantification of Compound 1 or Compound 2 based on the conditions used was 1 ng/ml and the standard curve was linear to 5,000 ng/ml. […]
# Acute administration of test compound 1 or test compound 2 by routes described (either PO, SC or IV) was done to rats and samples collected at the timepoints described for subsequent extraction, dissolution and quantitative LCMS bioanalysis. […]
# [2] = test system: Maximal Electroshock Seizure (MES) model in rats; assay: Maximal Electroshock Seizure (MES) model in rats; type: in vivo
# Source text: Adult male Carworth Farms (CF-1) mice (25-35 g) or young male Sprague-Dawley (SD) rats (100-150 g) were obtained from Charles River Laboratories Inc (Wilmington Mass. USA). CF1 mice were typically used for the 6 Hz psychomotor seizure model (6 Hz model described in the section below) but could also be used for the Maximal electroshock seizure (MES) model if performed in mice (Maximal electroshock seizure model described in the section below). SD rats were typically used for MES model but could also be used for 6 Hz psychomotor model if performed in rats. Animals were allowed free access to food and water, except during testing periods. After delivery from supplier lab to the in vivo pharmacology testing lab, animals were allowed sufficient time to acclimate to housing conditions prior to testing. Animals were housed in plastic cages in rooms with controlled humidity, ventilation, and lighting (12 hours lights on and 12 hours darkness). The animals were housed and fed in a manner consistent with the recommendations in the “Guide for Care and Use of Laboratory Animals” (National Research Council), and in accordance with guidelines set by an Institutional Animal Care and Use Committee (IACUC). Animal experiments were conducted in a manner consistent with Animal Research: Reporting of In Vivo Experiments (ARRIVE) guidelines (UK) and were approved by an IACUC. […]
SMILES,compound levels in vivo by LCMS [1],"MES Test Results (# rats protected from seizure/# rats tested) ([2]; 6 mg/kg S.C., 0.5 hours before corneal stimulus, SPHA formulation)","tolerability of treatment in MES study ([2]; rats, single acute systemic administration)"
"O=C(O)[C@@H]1C[C@H]2CC(F)(CCc3nnn[nH]3)CC[C@H]2CN1 (stereo in doubt) [Compound 2, (3S,4aS,6R,8aR)-6-fluoro-6-[2-(1H-1,2,3,4-tetrazol-5-yl)ethyl]-decahydroisoquinoline-3-carboxylic acid]",below limit of detection,,
"O=C(O)[C@@H]1C[C@H]2C[C@@](F)(CCc3nnn[nH]3)CC[C@H]2CN1 [Compound 1, (3S,4aS,6S,8aR)-6-fluoro-6-[2-(1H-1,2,3,4-tetrazol-5-yl)ethyl]-decahydroisoquinoline-3-carboxylic acid]",,6/6,well tolerated

# — patent publication US11685726B2, “Pharmaceutical compositions of 6-(2-(2H-tetrazol-5-yl)ethyl)-6-fluorodecahydroisoquinoline-3-carboxylic acid and ester derivatives thereof” (Sea Pharmaceuticals LLC, priority 2020, dated 2023)
